≈ marks a conversion by molar mass, not a printed value.
Legend:
[1] = AUC (0 to t) in C57BL6 mouse brain at 10 mg/kg, po measured up to 24 hrs; type: ADME, organism-based; conditions: in vivo
[2] = Tmax in C57BL6 mouse brain at 10 mg/kg, po measured up to 24 hrs; type: ADME, organism-based
[3] = Cmax in C57BL6 mouse brain at 10 mg/kg, po measured up to 24 hrs; type: ADME, organism-based; design: route oral, dose 10 mg/kg, time <=24
[4] = AUC (0 to infinity) in C57BL6 mouse brain at 10 mg/kg, po measured up to 24 hrs; type: ADME, organism-based; design: route oral, dose 10 mg/kg, time <=24; conditions: in vivo
[5] = physchem; conditions: buffer, pH 7.4
[6] = Cmax in C57BL6 mouse plasma at 10 mg/kg, po measured up to 24 hrs; type: ADME, organism-based; design: route oral, dose 10 mg/kg, time <=24
[7] = AUC (0 to infinity) in C57BL6 mouse plasma at 10 mg/kg, po measured up to 24 hrs; type: ADME, organism-based; design: route oral, dose 10 mg/kg, time <=24
[8] = Unbound brain-to-plasma concentration ratio in C57BL6 mouse plasma at 10 mg/kg, po measured up to 24 hrs; type: ADME, organism-based; conditions: brain and plasma, read-out: K(p,uu,brain)
[9] = in vitro; conditions: dog, MDCK-MDR1
[10] = Tmax in C57BL6 mouse plasma at 10 mg/kg, po measured up to 24 hrs; type: ADME, organism-based
[11] = Half life in C57BL6 mouse brain at 10 mg/kg, po measured up to 24 hrs; type: ADME, organism-based
[12] = AUC (0 to t) in C57BL6 mouse plasma at 10 mg/kg, po measured up to 24 hrs; type: ADME, organism-based; design: route oral, dose 10 mg/kg, time <=24
[13] = Half life in C57BL6 mouse plasma at 10 mg/kg, po measured up to 24 hrs; type: ADME, organism-based
[14] = in vitro; conditions: dog, MDCK-MDR1; remark: listed apart in the source
[15] = physchem; conditions: buffer

AUCt [1] [ng·h/g]	Tmax [2] [h]	Cmax [3] [ng/g]	AUC [4] [ng·h/g]	logD [5]	Cmax [6] [ng/mL]	AUC(0-inf) [7] [ng·h/mL]	Kp uu at 24 h [8]	Tmax [10] [h]	half-life [11] [h]	AUC(0-t) at 24 h [12] [ng·h/mL]	half-life [13] [h]	SMILES	Papp B→A [9] [×10⁻⁶ cm/s]	Papp A→B [14] [×10⁻⁶ cm/s]	solubility [15] [µM]
8870	0.17	2990	9910	2.6	16600	63100	0.025	0.5	2.3	50400	3.7	Oc1nnc(-c2ccc(Cl)c(C(F)(F)F)c2)o1	55	34	710 (≈ 188 µg/mL)
–	–	–	–	–	–	–	–	–	–	–	–	Oc1nnc(-c2ccc(Cl)c(C(F)(F)F)c2)s1	70	45	22 (≈ 6.17 µg/mL)
